This is an account of results in patent US5952511A, “Indolin-2-one derivatives” (Chugai Seiyaku Kabushiki Kaisha, priority 1993, dated 1999).

The subject of experiment [1] is gastric acid secretion. Particulars: in words; cited from earlier work.
A further experiment relates to gastrin receptors. Conditions: in words; cited from earlier work.
The next experiment relates to CCK-B receptors. Particulars: in words; cited from earlier work.
The target in experiment [2] is T1, CCK-B receptors (rat cerebral cortex) (Rattus norvegicus, UniProt P30553).
T1 construct: Cerebral cortex was minced in the same buffer, and homogenized with Polytron; from tissue; host or cells: cerebral cortex membrane fraction of Sprague-Dawley male rats
T1 sequence (P30553 1-452): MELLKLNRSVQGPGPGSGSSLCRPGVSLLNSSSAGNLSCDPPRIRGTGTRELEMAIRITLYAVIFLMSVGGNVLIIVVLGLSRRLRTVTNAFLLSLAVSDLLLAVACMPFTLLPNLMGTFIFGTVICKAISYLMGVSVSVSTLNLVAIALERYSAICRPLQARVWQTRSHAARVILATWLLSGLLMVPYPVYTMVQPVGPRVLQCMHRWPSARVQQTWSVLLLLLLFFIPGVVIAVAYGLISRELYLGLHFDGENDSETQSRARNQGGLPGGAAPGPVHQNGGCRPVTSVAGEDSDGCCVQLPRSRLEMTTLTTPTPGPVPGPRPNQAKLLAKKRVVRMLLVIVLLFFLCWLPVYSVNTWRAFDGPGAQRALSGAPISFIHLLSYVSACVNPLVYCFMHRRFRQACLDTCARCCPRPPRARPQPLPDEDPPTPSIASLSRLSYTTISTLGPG
The experiment is described as follows: CCK-B Receptor Binding Test in Rat Cerebral Cortex (Test Example 3). Particulars: inhibition of specific 125I-CCK-8 sulfated binding (15 pM), 25° C., 120 min. Also noted: species or system rat (Sprague-Dawley, male). As for the experimental part:
CCK-B Receptor Binding Test in Rat Cerebral Cortex
A rat cortical membrane fraction was prepared in accordance with the method of Chang, et al., Proc. Natl. Acad. Sci., U.S.A., 83, 4923 (1986). Sprague-Dawley male rats were sucrified and the brains were removed and immersed in a 50 mM Tris-HCl buffer (pH 7.4) under ice-cooling, and the cortex was dissected. Cerebral cortex was minced in the same buffer, and homogenized with Polytron. The homogenate was centrifuged at 2,500 g, and the supernatant was further centrifuged at 50,000 g. The pellet was resuspended in a reaction buffer solution (10 mM HEPES, 5 mM MgCl2, 1 mM EGTA, 130 mM NaCl; pH 6.5).
To 150 μl of the resulting rat cerebral cortex suspension were added 20 μl of ^125 I-CCK-8 sulfated (final concentration: 15 pM) and 10 μl of a test compound or a solvent (for total binding) or 1 μM CCK-8 sulfated (for nonspecific binding), and the reaction buffer solution was added there to make 1 ml. The reaction mixture was incubated at 25° C. for 120 minutes, followed by filtration through a GF/B filter (produced by Whatman). The radio-activity of the membrane fraction adsorbed onto the filter was measured with a gamma-counter.
The specific binding to CCK-B receptors was obtained from a difference between the total binding and the nonspecific binding. The IC50 of the test compound in inhibition of specific binding was calculated.

Experiment [3] addresses T2, gastrin receptors (guinea pig gastric glands) (Cavia porcellus, UniProt H0VZC5).
T2 construct: The gastric glands were isolated from the tissue with a pipette; from tissue; host or cells: isolated gastric glands from gastric mucosa of Hartley male guinea pigs
T2 sequence (H0VZC5 1-426): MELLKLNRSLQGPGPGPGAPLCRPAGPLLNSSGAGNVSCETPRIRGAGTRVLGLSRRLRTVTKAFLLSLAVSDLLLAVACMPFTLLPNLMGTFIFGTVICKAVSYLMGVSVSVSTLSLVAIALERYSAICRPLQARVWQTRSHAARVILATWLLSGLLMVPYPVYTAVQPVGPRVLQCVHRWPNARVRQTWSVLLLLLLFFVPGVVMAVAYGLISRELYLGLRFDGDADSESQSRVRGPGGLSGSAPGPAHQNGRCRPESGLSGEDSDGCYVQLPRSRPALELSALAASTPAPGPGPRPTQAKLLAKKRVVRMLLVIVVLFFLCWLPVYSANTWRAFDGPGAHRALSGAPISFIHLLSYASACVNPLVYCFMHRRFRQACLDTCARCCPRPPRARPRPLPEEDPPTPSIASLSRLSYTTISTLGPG
The experiment in a line: Gastrin Receptor Binding Test in Guinea Pig Gastric Glands (Test Example 1). Also noted: species or system guinea pig (Hartley, male). Conditions: inhibition of specific 125I-gastrin I human binding (22.5 pM), 25° C., 45 min. As for the experimental part:
Gastrin Receptor Binding Test in Guinea Pig Gastric Glands
Preparation of Gastric Glands:
Guinea pig gastric glands were prepared according to the method of Chang, et al., Biochem. Biophys. Res. Commun., 134, 895 (1986). The gastric mucosa of a Hartley male guinea pig was peeled off. After washing, the mucosa was minced with scissors in buffer A (Eagle's MEM containing 2 mM L-glutamine and 25 mM HEPES; pH 7.4). After washing, the minced tissue was incubated in buffer A containing 0.025% collagenase, 0.01% soy bean trypsin inhibitor, and 0.1% BSA at 37° C. for 60 minutes under 95% O2 and 5% CO2. The gastric glands were isolated from the tissue with a pipette, washed twice with buffer A, and filtered through a mesh. Then, the gastric glands were obtained by centrifugation.
Guinea pig gastric glands were resuspended in buffer B (Hank's solution containing 10 mM HEPES and 0.2% BSA; pH 7.4) (10 ml of buffer B per guinea pig).
To 200 μl of the suspension containing the resuspended isolated gastric glands were added 20 μl of ^125 I-gastrin I human (final concentration: 22.5 pM). Then, 10 μl of a test compound or a solvent (for total binding) or 10 μM Pentagastrin (for nonspecific binding), and buffer B was added there to make a total volume of 1 ml. The reaction mixture was incubated at 25° C. for 45 minutes and then centrifuged at 12000 g. The supernatant was removed by suction, and the radioactivity of the isolated gastric glands was measured with a gamma-counter.
The specific binding of gastrin to gastrin receptors was obtained from a difference between the total binding and the nonspecific binding. The IC50 of the test compound in inhibition of specific binding was calculated.

For experiment [4], the system named is gastric acid secretion. The experiment is described as follows: Inhibitory Activity on Gastric Acid Secretion in Pylorus Ligated Rats (Test Example 2). Type of experiment: in vivo, rat (Sprague-Dawley, male). Conditions: Rattus norvegicus, intraduodenal, 10 mg/kg, i.d., 4 h. As for the experimental part: Inhibitory Activity on Gastric Acid Secretion in Pyrolus Ligated Rats
Sprague-Dawley male rats weighing about 200 g were deprived of food for 24 hours while allowed water ad libitum. The abdomen was opened under anesthesia with ethyl ether, the pyrolus ligated, and the abdomen closed. The rats were deprived of food and water for 4 hours until they were surcrified with ethyl ether. The stomach was removed, and gastric juice was collected and measured. The gastric juice was centrifuged at 3000 rpm, and the supernatant was titrated up to pH 7.0 with 0.1N NaOH solution to obtain the acidity of the gastric juice. The amount of the gastric acid output was calculated by multiplying the gastric juice volume by the acidity, and the percent inhibition of acid secretion was obtained according to the following equation. A test compound, suspended in a 3% gum arabic solution, was administered intraduodenally at a dose of 2 ml/kg immediately after the pyrolus ligation.
Inhibition (%)=[(Average amount of gastric acid output in control group--Average amount of gastric acid output in test group)/Average amount of gastric acid secreted […]]×100

For `Cc1cccc(NC(=O)N[C@@H]2N=C(c3ccccc3)c3ccccc3N(C)C2=O)c1` [L-365,260], the “inhibitory activity on gastric acid secretion when administered in vivo” value in the experiment on gastric acid secretion [1] was “do not exert powerful inhibitory activity on gastric acid secretion”. In addition, the “binding activity to gastrin receptors” value in the experiment with gastrin receptors is “high binding activity to gastrin receptors”.

Take `CCCN(CCC)C(=O)C(CCC(=O)O)NC(=O)c1ccccc1` (stereo not shown) [Proglumide]: the “binding activity to CCK-B receptors” value in the experiment on CCK-B receptors is reported as “very weak”. For the same compound, the “binding activity to gastrin receptors” value in the experiment with gastrin receptors is “very weak”.

With `CCOC(CN1C(=O)C(CC(=O)Nc2ccc(C)cn2)(NC(=O)Nc2ccc(C)cc2)c2ccccc21)OCC` (single isomer, unassigned; (+)) [Example 179], the figures for the IC50 in experiment [2] and in experiment [3] were 0.14 nM and 1.6 nM, respectively. The same compound showed an inhibition in vivo at 10 mg/kg in the experiment on gastric acid secretion [4] of 63%.

For the compound `CCOC(CN1C(=O)C(CC(=O)Nc2ccc(C)cc2)(NC(=O)Nc2ccc(C)cc2)c2ccccc21)OCC` (racemic) [Example 71, (RS)-1-(2,2-Diethoxyethyl)-3-((4-methylphenyl)aminocarbonylmethyl)-3-(N'-(4-methylphenyl)ureido)indolin-2-one], the IC50 in experiment [2] is 1.2 nM; in experiment [3], 1.1 nM. Further, in the experiment on gastric acid secretion [4], testing at 10 mg/kg gave an inhibition in vivo of 48%.

Take `CCOC(CN1C(=O)C(CC(=O)Nc2ccc(N(C)C)cc2)(NC(=O)Nc2cccc(OC)c2)c2ccccc21)OCC` (single isomer, unassigned; (+)) [Example 191]: the IC50 in experiment [2] is 0.45 nM; in experiment [3], 5.5 nM. Moreover, in the experiment with gastric acid secretion [4], the inhibition in vivo at 10 mg/kg turned out to be 78%.

With `CCOC(CN1C(=O)C(CC(=O)Nc2ccc(N(C)C)cc2)(NC(=O)Nc2cccc(OC)c2)c2ccccc21)OCC` (racemic) [Example 156], the IC50 in experiment [2] amounted to 2.8 nM; in experiment [3] it was 6.5 nM. At 10 mg/kg the inhibition in vivo in the experiment on gastric acid secretion [4] was 69%.

Take `CCOC(CN1C(=O)C(CC(=O)Nc2ccc(OC)nc2)(NC(=O)Nc2ccc(C)cc2)c2ccccc21)OCC` (racemic) [Example 143, (RS)-1-(2,2-Diethoxtyethyl)-3-((2-methoxypyrido-5-yl)aminocarbonylmethyl)-3-(N'-(4-methylphenyl)ureido)indolin-2-one]: the IC50 in experiment [2] came out at 1.9 nM; in experiment [3], 1.5 nM. This compound also gave an inhibition in vivo at 10 mg/kg with gastric acid secretion [4] of 64%.

Turning to `CCOC(CN1C(=O)C(CC(=O)Nc2ccc(Cl)cc2)(NC(=O)Nc2ccc(C)cc2)c2ccccc21)OCC` (racemic) [Example 114, (RS)-3-((4-Chlorophenyl)aminocarbonylmethyl)-1-(2,2-diethoxyethyl)-3-(N'-(4-methylphenyl)ureido)indolin-2-one], the IC50 in experiment [2] was determined as 0.64 nM; in experiment [3], 2.4 nM. For the same compound, the inhibition in vivo at 10 mg/kg in the experiment with gastric acid secretion [4] was 56%.

For the compound `CCOC(CN1C(=O)C(CC(=O)Nc2ccc(C)cn2)(NC(=O)Nc2cccc(OC)c2)c2ccccc21)OCC` (single isomer, unassigned; (+)) [Example 190, (+)-1-(2,2-Diethoxyethyl)-3-(N'-(3-methoxyphenyl)ureido)-3-((5-methylpyrido-2-yl)aminocarbonylmethyl)indolin-2-one], the IC50 in experiment [2] was determined as 0.1 nM; in experiment [3] it was 0.68 nM. The compound also showed an inhibition in vivo at 10 mg/kg in the experiment on gastric acid secretion [4] of 70%.

As for `CCOC(CN1C(=O)C(CC(=O)Nc2cccc(OC)c2)(NC(=O)Nc2ccc(C)cc2)c2ccccc21)OCC` (racemic) [Example 129, (RS)-1-(2,2-Diethoxyethyl)-3-((3-methoxyphenyl)aminocarbonylmethyl)-3-(N'-(4-methylphenyl)ureido)indolin-2-one], the IC50 in experiment [2] amounted to 0.39 nM; in experiment [3] it was 3.6 nM. The same compound yielded an inhibition in vivo at 10 mg/kg in the experiment with gastric acid secretion [4] of 71%.

Consider `CCOC(CN1C(=O)C(CC(=O)Nc2ccc(N(C)C)cc2)(NC(=O)Nc2ccc(C)cc2)c2ccccc21)OCC` (racemic) [Example 130, (RS)-1-(2,2-Diethoxyethyl)-3-((4-(N,N-dimethylamino)phenyl)aminocarbonylmethyl)-3-(N'-(4-methylphenyl)ureido)indolin-2-one], for which the figures for the IC50 in experiment [2] and in experiment [3] were 2.3 nM and 4.9 nM, respectively. Also, at 10 mg/kg the inhibition in vivo with gastric acid secretion [4] was 71%.

Consider `CCOC(CN1C(=O)C(CC(=O)Nc2ccc(C)c(C)c2)(NC(=O)Nc2ccc(C)cc2)c2ccccc21)OCC` (racemic) [Example 122, (RS)-1-(2,2-Diethoxyethyl)-3-((3,4-dimethylphenyl)aminocarbonylmethyl)-3-(N'-(4-methylphenyl)ureido)indolin-2-one], for which the IC50 came out at 0.18 nM in experiment [2] and 2.9 nM in experiment [3]. The compound also yielded an inhibition in vivo at 10 mg/kg with gastric acid secretion [4] of 62%.
